“Also recorded” adds a separate entry of the source. Counter-ions that a name gives are not always drawn.
Assays:
[1] = cited from earlier work
[2] = Stability of form II: suspension stirred in solvent, solid analysed by XRPD; assay type: physicochemical
Protocol: 2.0 g of anagrelide hydrochloride monohydrate form II was suspended in 20 ml solvent. […] At certain time points, a small amount of the suspension was filtered over a P3-glass filter (reduced pressure). The solids were air-dried overnight at RT.
(§1) In the above examples, the XRPD patterns were recorded on a Bruker-AXS D8 vario (Θ/2Θ geometry, reflection mode, Vantec PSD detector) operating at the following settings: […]

[3] = Conversion study in ethanol at specified stirring temperature, XRPD; assay type: physicochemical; conditions: for Crystal form (XRPD): ethanol, stirring time 2 hours only
Protocol: The suspension was filtered over a P3-glass filter (reduced pressure), washed with solvent and dried.
as §1

[4] = Stability of form I: suspension stirred in solvent, solid analysed by XRPD; assay type: physicochemical; conditions: RT
Protocol: […] The suspension was filtered over a P3-glass filter (reduced pressure), washed with solvent and dried.
as §1

[5] = Polymorphic stability on exposure to air / air-drying; assay type: physicochemical
[6] = Instant solubility in buffers, Milli-Q water and 0.1 M HCl (HPLC-UV); assay type: physicochemical; conditions: USP acetate buffer pH 4.5, USP phosphate buffer pH 6.8, Milli-Q water and 0.1 M HCl; room temperature; 0-60 minutes; Figure 5; hydrochloride monohydrate
Protocol: The instant solubility of anagrelide hydrochloride monohydrate form II, form I and free base was determined in USP acetate buffer pH 4.5, USP phosphate buffer pH 6.8, Milli-Q water (herein below "MQ") and 0.1 M HCl. About 30 mg of the drug substance was transferred into a clear 50 ml sample jar and a stirring bar was added. Subsequently 30 ml of test medium was added; the vial was closed and placed on a magnetic stirrer. Under constant stirring at room temperature samples of 2 ml were taken at t=0, 10, 20, 30, 40, 50, and 60 minutes. The samples were immediately filtered through a 0.45 µm syringe disk filter (first ml was discarded) and analyzed at once with the HPLC-UV method described in Table 1. The solubility was calculated in mg/ml anagrelide free base against an external standard (AGL.hcl.mhy.120310) dissolved in acetonitrile/milli-Q (ACN/MQ) (50:50). Table 1 HPLC-UV parameters used for instant solubility testing

For `O=C1CN2Cc3c(ccc(Cl)c3Cl)N=C2N1` [Anagrelide hydrochloride monohydrate], the solubility in water [1] is listed as “very slightly soluble” and the “converts into anagrelide free base” value ([2]; in water) is listed as 30 to 180 min.
With `Cl.O.O=C1CN2Cc3c(ccc(Cl)c3Cl)N=C2N1` [anagrelide hydrochloride monohydrate] the “Crystal form (XRPD)” value ([3]; stirring temperature 72.5 °C) was “I + II” and the “Crystal form (XRPD)” value ([3]; stirring temperature 75 °C) was “mostly I, some II left”.
For `O=C1CN2Cc3c(ccc(Cl)c3Cl)N=C2N1` [form I, anagrelide hydrochloride monohydrate], the XRPD ([4]; 2-propanol, 16 hours) was “Form I + II”, the XRPD ([4]; Acetone, 2 days) was “Form II” and the XRPD ([4]; Demi-water, 30 min) was “Anagrelide base”. For the same molecule, the XRPD ([4]; Demi-water, 180 min) was “Anagrelide base”, the XRPD ([4]; Ethanol, 30 min) was “Form II” and the XRPD ([4]; Ethanol, 16 hours) was “Form II”. For the same molecule, the XRPD ([4]; Ethyl acetate, 2 days) was “Form II”.
For `O=C1CN2Cc3c(ccc(Cl)c3Cl)N=C2N1` [form II, anagrelide hydrochloride monohydrate], the “polymorphic change on air-drying” value ([5]; air-drying at ambient temperature) was “does not cause any polymorphic change”, the transition point ([3]; form II / form I, suspension in ethanol) was “around 72.5 °C” and the stable at temperatures ([3]; suspension in ethanol) was “below 70 °C”. The XRPD ([2]; 2-propanol, 30 min, RT) was “Form II”, the XRPD ([2]; 2-propanol, 60 min, RT) was “Form II” and the XRPD ([2]; 2-propanol, 120 min, RT) was “Form II”. For the same molecule, the XRPD ([2]; 2-propanol, overnight, RT) was “Form II”, the XRPD ([2]; Demi-water, 30 min, RT) was “Form II + anagrelide base” and the XRPD ([2]; Demi-water, 60 min, RT) was “Form II + anagrelide base”. The XRPD ([2]; Demi-water, 120 min, RT) was “Form II + anagrelide base”, the XRPD ([2]; Demi-water, 180 min, RT) was “Anagrelide base” and the XRPD ([2]; Ethanol, 30 min, RT) was “Form II”. The XRPD ([2]; Ethanol, 60 min, RT) was “Form II”, the XRPD ([2]; Ethanol, 120 min, RT) was “Form II” and the XRPD ([2]; Ethanol, 3 hours, reflux) was “Form I”. The XRPD ([2]; Ethanol, overnight, RT) was “Form II”, the polymorphic stability ([2]; ambient temperature, ethanol, 2-propanol, acetone, ethyl acetate, compared with form I) was “polymorphically stable at ambient temperature and even more stable than form I” and the “stability against aqueous hydrolysis” value ([2]; stirred in demi-water for up to 180 minutes, compared with form I) was “more stable against aqueous hydrolysis than form I”. For the same molecule, the “instant solubility compared to form I” value [6] was “more soluble; also recorded: higher”.
For `O=C1CN2Cc3c(ccc(Cl)c3Cl)N=C2N1` [form III, anagrelide hydrochloride monohydrate], the “stability when exposed to air” value ([5]; exposed to air) was “converts into form I or a mixture of forms I and II”.

— EP2945948B1, “CRYSTALLINE FORM II OF ANAGRELIDE HYDROCHLORIDE MONOHYDRATE” (Synthon BV, priority 2013, dated 2014)
